Test systems include A549; ACHN; HCC 2998; HCT-116; HL-60; HT-29; Hs-578T; K562; LOX IMVI; M14; MDA-MB-231; MDA-MB-435; MOLT-4; NCI-H23; NCI-H460; OVCAR-4; SF-539; SK-MEL-5; SW-620; UO-31.
Experiment in all cases: NCI tumour cell line growth inhibition, 48 h

Structures are written as SMILES.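 All cell lines were grown in 96-well plates and treated with compound for 48 hours. GI50 = concentration required for 50% inhibition of growth.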 The source made the active and inactive calls. Cut-off read from the data, not from the text of the source: active = GI50 up to about 1.1 µM and inactive = higher.

In the case of `c1coc(C2=Nc3cccc4cccc(c34)N2)c1`, the GI50 with A549 is 60.3 µM (inactive); in the assay on ACHN, 22.1 µM (inactive); in the assay with HCC 2998, 34.9 µM (inactive); in the assay with HCT-116, 23.1 µM (inactive); in the assay on HL-60, 19.5 µM (inactive); in the assay on HT-29, 23.2 µM (inactive). For the same molecule, the GI50 was 55.6 µM (inactive) in the assay with Hs-578T; 38.7 µM (inactive) in the assay with K562; 41.9 µM (inactive) in the assay on LOX IMVI; 25.4 µM (inactive) with M14; 34.6 µM (inactive) in the assay with MDA-MB-231; 50.8 µM (inactive) in the assay with MDA-MB-435. In addition, the GI50 in the assay with MOLT-4 was > 100 µM (inactive); in the assay with NCI-H23, 44.8 µM (inactive); with NCI-H460, 34.8 µM (inactive); in the assay on OVCAR-4, 29.9 µM (inactive); with SF-539 it was 15 µM (inactive); with SK-MEL-5, 34.9 µM (inactive). The results for the GI50 in the assay on SW-620 and in the assay on UO-31 were 38.6 µM (inactive) and 16.2 µM (inactive), respectively.
Consider `O=C1c2c(nc3ccccc3c2-c2ccccc2)CN1Nc1ccccn1`, for which the GI50 is 59.4 µM (inactive) in the assay on A549; 43.7 µM (inactive) in the assay on ACHN; > 100 µM (inactive) with HCC 2998; 79.8 µM (inactive) in the assay on HCT-116; 97.9 µM (inactive) in the assay on HL-60; > 100 µM (inactive) in the assay on HT-29. Besides, the GI50 in the assay on Hs-578T was 21.2 µM (inactive); with K562 it was 83.4 µM (inactive); in the assay on LOX IMVI it was > 76.9 µM (inactive); in the assay on M14 it was > 100 µM (inactive); in the assay with MDA-MB-231, > 100 µM (inactive); in the assay with MDA-MB-435, > 100 µM (inactive). For the same molecule, the GI50 was 71.4 µM (inactive) with MOLT-4; 86.5 µM (inactive) in the assay on NCI-H23; 40.6 µM (inactive) with NCI-H460; > 80.7 µM (inactive) with OVCAR-4; > 75.2 µM (inactive) in the assay on SF-539; 74.5 µM (inactive) in the assay with SK-MEL-5. For the same molecule, the results for the GI50 in the assay on SW-620 and in the assay with UO-31 were > 100 µM (inactive) and 13.8 µM (inactive), respectively.
For the molecule `O=C1/C(=C/c2cccc(O)c2)COc2ccccc21`, the GI50 in the assay with A549 is 20 µM (inactive); in the assay on ACHN, 1.78 µM (inactive); in the assay on HCC 2998, 0.029 µM (active); in the assay with HCT-116, 1.75 µM (inactive); with HL-60, 4.5 µM (inactive); with HT-29, 3.27 µM (inactive). Also, the GI50 with Hs-578T is 9.77 µM (inactive); with K562, 2.78 µM (inactive); in the assay on LOX IMVI it was 1.95 µM (inactive); in the assay with M14, 4.27 µM (inactive); in the assay with MDA-MB-231 it was 8.2 µM (inactive); in the assay on MDA-MB-435, 5.73 µM (inactive). In addition, the GI50 was 2.24 µM (inactive) in the assay on MOLT-4; 5.74 µM (inactive) with NCI-H23; 20.8 µM (inactive) with NCI-H460; 5.32 µM (inactive) with OVCAR-4; 9.86 µM (inactive) in the assay with SF-539; 9.2 µM (inactive) in the assay on SK-MEL-5. In addition, the GI50 in the assay with SW-620 was 2.19 µM (inactive); with UO-31 it was 10.5 µM (inactive).
Take `CN(C)CCCCN1c2ccccc2Sc2cc(N=[N+]=[N-])ccc21`: the GI50 in the assay with A549 is 1.79 µM (inactive); in the assay with ACHN, 1.99 µM (inactive); with HCC 2998 it was 1.89 µM (inactive); in the assay on HCT-116, 1.78 µM (inactive); in the assay on HL-60, 2.11 µM (inactive); with HT-29 it was 1.55 µM (inactive). The GI50 is 3.03 µM (inactive) with Hs-578T; 1.88 µM (inactive) in the assay on K562; 1.56 µM (inactive) in the assay with LOX IMVI; 1.69 µM (inactive) in the assay with M14; 1.71 µM (inactive) in the assay with MDA-MB-231; 1.67 µM (inactive) in the assay with MDA-MB-435. Further, the GI50 in the assay on MOLT-4 is 1.93 µM (inactive); in the assay on NCI-H23, 9.66 µM (inactive); in the assay on NCI-H460 it was 1.89 µM (inactive); in the assay on OVCAR-4, 2.4 µM (inactive); in the assay on SF-539, 1.96 µM (inactive); in the assay on SK-MEL-5 it was 1.73 µM (inactive). Besides, the GI50 with SW-620 is 1.87 µM (inactive); in the assay with UO-31, 1.83 µM (inactive).
For `O=C(NC(Cc1ccccc1)(Cc1ccc(O)cn1)C(=O)O)c1ccccc1` (stereo not given), the GI50 with A549 is > 100 µM (inactive); in the assay on ACHN, > 100 µM (inactive); in the assay with HCC 2998, 99.1 µM (inactive); in the assay on HCT-116, 58.9 µM (inactive); in the assay with HL-60, 16.5 µM (inactive); with HT-29 it was 42.2 µM (inactive). For the same molecule, the GI50 in the assay on Hs-578T, in the assay on K562, in the assay on LOX IMVI, with M14, with MDA-MB-231 and with MDA-MB-435 was > 100 µM (inactive) each time. Besides, the GI50 is 46.8 µM (inactive) in the assay on MOLT-4; > 100 µM (inactive) in the assay with NCI-H23; > 100 µM (inactive) in the assay with NCI-H460; 98.6 µM (inactive) in the assay with OVCAR-4; > 100 µM (inactive) in the assay with SF-539; > 100 µM (inactive) with SK-MEL-5. Further, the GI50 in the assay with SW-620 is > 100 µM (inactive); in the assay with UO-31, 86.5 µM (inactive).
For the molecule `O=[N+]([O-])c1ccc(-n2nc3ccc4nonc4c3n2)cc1`, the GI50 was 72.1 µM (inactive) in the assay on A549; 41.3 µM (inactive) in the assay on ACHN; 97.3 µM (inactive) with HCC 2998; 74.6 µM (inactive) in the assay with HCT-116; > 100 µM (inactive) in the assay with HL-60; > 100 µM (inactive) in the assay on HT-29. Moreover, the GI50 with Hs-578T is 13.3 µM (inactive); in the assay with K562, > 100 µM (inactive); in the assay with LOX IMVI, 42.4 µM (inactive); in the assay on M14, 52.1 µM (inactive); with MDA-MB-231 it was > 100 µM (inactive); in the assay on MDA-MB-435, > 100 µM (inactive). For the same molecule, the GI50 with MOLT-4 is > 100 µM (inactive); in the assay with NCI-H23, 23.7 µM (inactive); in the assay on NCI-H460, 37.3 µM (inactive); with OVCAR-4, 9.08 µM (inactive); with SF-539 it was 44.8 µM (inactive); in the assay with SK-MEL-5, 31.2 µM (inactive). For the same molecule, the GI50 in the assay with SW-620 was > 100 µM (inactive); in the assay on UO-31, 21.3 µM (inactive).
With `O=[N+]([O-])c1ccc(Sc2c3ccccc3nc3ccccc23)nc1`, the GI50 with A549 is 26.2 µM (inactive); with ACHN, 7.87 µM (inactive); with HCC 2998, 15.7 µM (inactive); in the assay with HCT-116, 2.09 µM (inactive); in the assay on HL-60, 4.48 µM (inactive); in the assay with HT-29 it was 3.06 µM (inactive). Also, the GI50 with Hs-578T was 19.4 µM (inactive); in the assay with K562, 2.08 µM (inactive); in the assay on LOX IMVI, 2.24 µM (inactive); in the assay with M14, 3.22 µM (inactive); with MDA-MB-231, 6.14 µM (inactive); in the assay with MDA-MB-435 it was 8.55 µM (inactive). Besides, the GI50 was 2.75 µM (inactive) in the assay with MOLT-4; 6.84 µM (inactive) with NCI-H23; 23.2 µM (inactive) with NCI-H460; 4.69 µM (inactive) in the assay with OVCAR-4; 16.7 µM (inactive) in the assay with SF-539; 16.7 µM (inactive) in the assay with SK-MEL-5. For the same molecule, the GI50 in the assay with SW-620 was 2.08 µM (inactive); in the assay with UO-31 it was 5.08 µM (inactive).
Consider `CO/C(N)=C(C#N)/N=C/c1ccccc1`, for which the GI50 in the assay with A549 is > 100 µM (inactive); in the assay on ACHN, > 100 µM (inactive); in the assay with HCC 2998, > 100 µM (inactive); with HCT-116, > 100 µM (inactive); in the assay on HL-60, 35.7 µM (inactive); in the assay on HT-29 it was 51.3 µM (inactive). In addition, the GI50 in the assay with Hs-578T was > 100 µM (inactive); in the assay with K562, 58.6 µM (inactive); in the assay with LOX IMVI it was > 100 µM (inactive); in the assay on M14 it was 79.6 µM (inactive); with MDA-MB-231 it was > 100 µM (inactive); in the assay on MDA-MB-435, > 100 µM (inactive). For the same molecule, the GI50 in the assay on MOLT-4 was > 100 µM (inactive); with NCI-H23, > 100 µM (inactive); in the assay with NCI-H460, > 100 µM (inactive); with OVCAR-4 it was 71 µM (inactive); in the assay with SF-539, > 100 µM (inactive); in the assay with SK-MEL-5, > 100 µM (inactive). The values for the GI50 in the assay with SW-620 and in the assay with UO-31 were > 100 µM (inactive) and 89.5 µM (inactive), respectively.
In the case of `CN1C=COC1N=C1CCCCC1` (stereo not given), the GI50 in the assay with A549, in the assay with ACHN, in the assay on HCC 2998, with HCT-116, with HL-60 and in the assay on HT-29 was > 100 µM (inactive) throughout. In addition, the GI50 in the assay with Hs-578T, with K562, in the assay on LOX IMVI, with M14, in the assay with MDA-MB-231 and with MDA-MB-435 was > 100 µM (inactive) throughout. Besides, the GI50 with MOLT-4, with NCI-H23, in the assay with NCI-H460, in the assay with OVCAR-4, in the assay on SF-539 and in the assay with SK-MEL-5 was > 100 µM (inactive) in each case. Further, the GI50 was 3.3 µM (inactive) with SW-620 and 50.9 µM (inactive) in the assay with UO-31.
As to `CCOC(=O)c1c(N2CCN(C)CC2)[nH]c(=O)c(C(c2c(Cl)cccc2Cl)c2c(O)c(C(=O)OCC)c(N3CCN(C)CC3)[nH]c2=O)c1O`, the GI50 in the assay with A549 was 27.9 µM (inactive); with ACHN it was 20.7 µM (inactive); with HCC 2998, 36.8 µM (inactive); in the assay with HCT-116 it was 38.1 µM (inactive); in the assay on HL-60, 19.5 µM (inactive); with HT-29 it was 19.8 µM (inactive). The GI50 is 33.8 µM (inactive) in the assay on Hs-578T; 25.8 µM (inactive) with K562; 34.5 µM (inactive) with LOX IMVI; 30 µM (inactive) in the assay with M14; 25.5 µM (inactive) with MDA-MB-231; 25.8 µM (inactive) with MDA-MB-435. Besides, the GI50 in the assay with MOLT-4 is 23.5 µM (inactive); in the assay with NCI-H23, 40.3 µM (inactive); with NCI-H460, 28.1 µM (inactive); in the assay with OVCAR-4, 21.5 µM (inactive); with SF-539, 19.4 µM (inactive); in the assay on SK-MEL-5, 20.7 µM (inactive). Further, the GI50 was 31.8 µM (inactive) with SW-620 and 21.5 µM (inactive) in the assay with UO-31.
